Measured values published in patent US9029386B2, “Pyridine derivatives useful as kinase inhibitors” (YM Biosciences Australia Pty Ltd, priority 2006, dated 2015).
pIC50: −log10 of the molar value.

Legend:
[1] = molecular target: T1, kinase domain of human c-kit (Homo sapiens, UniProt P10721); experiment: Alphascreen protein tyrosine kinase assay, c-KIT; format: biochemical
T1 construct: from codon M552 to end; made in house; host or cells: Sf9 insect cells (baculovirus)
Method: (§1) For screening purposes, compounds were diluted in 96 well plates at a concentration of 20 μM. Plates were warmed at 37° C. for 30 minutes before assay.
The kinase domain of human c-kit from codon M552 to end was cloned into the pDEST-20 expression vector (Invitrogen). The c-kit plasmid was then transformed into competent DH10Bac cells (Gibco), and the recombinant baculovirus produced prepared for transfection into Sf9 insect cells.
(§2) Baculovirus preparations from each of construct were infected into five liters of SF9 cells (Invitrogen) grown in SF-900 medium (Invitrogen) to a cell density of approximately 1−2×10^6 cells/ml. […] Cells were harvested and lysed. Tyrosine kinase domains were purified by affinity chromatography on a glutathione-agarose column (Scientifix Pty. Ltd. catalog #: GSH-200).
(§3) Kinase assays were performed in 384 well Optiplates (Packard) using an Alphascreen Protein Tyrosine Kinase kit. […] Alphascreen phosphotyrosine acceptor beads followed by streptavidin donor beads were added under subdued light. The Alphascreen plates were read on a Packard Fusion Alpha. Inhibitors were added to the assays thirty minutes prior to the addition of ATP. Inhibitors were added in aqueous DMSO, with DMSO concentrations never exceeding 1%.

FLT-3 tyrosine kinase = molecular target: T2, FLT-3 tyrosine kinase (Homo sapiens, UniProt P36888); experiment: Alphascreen protein tyrosine kinase assay, FLT-3; format: biochemical; details: read-out: Flt3
T2 construct: purchased Upstate Cell Signalling Solutions, CA, USA 14-500
T2 sequence (P36888 27-993): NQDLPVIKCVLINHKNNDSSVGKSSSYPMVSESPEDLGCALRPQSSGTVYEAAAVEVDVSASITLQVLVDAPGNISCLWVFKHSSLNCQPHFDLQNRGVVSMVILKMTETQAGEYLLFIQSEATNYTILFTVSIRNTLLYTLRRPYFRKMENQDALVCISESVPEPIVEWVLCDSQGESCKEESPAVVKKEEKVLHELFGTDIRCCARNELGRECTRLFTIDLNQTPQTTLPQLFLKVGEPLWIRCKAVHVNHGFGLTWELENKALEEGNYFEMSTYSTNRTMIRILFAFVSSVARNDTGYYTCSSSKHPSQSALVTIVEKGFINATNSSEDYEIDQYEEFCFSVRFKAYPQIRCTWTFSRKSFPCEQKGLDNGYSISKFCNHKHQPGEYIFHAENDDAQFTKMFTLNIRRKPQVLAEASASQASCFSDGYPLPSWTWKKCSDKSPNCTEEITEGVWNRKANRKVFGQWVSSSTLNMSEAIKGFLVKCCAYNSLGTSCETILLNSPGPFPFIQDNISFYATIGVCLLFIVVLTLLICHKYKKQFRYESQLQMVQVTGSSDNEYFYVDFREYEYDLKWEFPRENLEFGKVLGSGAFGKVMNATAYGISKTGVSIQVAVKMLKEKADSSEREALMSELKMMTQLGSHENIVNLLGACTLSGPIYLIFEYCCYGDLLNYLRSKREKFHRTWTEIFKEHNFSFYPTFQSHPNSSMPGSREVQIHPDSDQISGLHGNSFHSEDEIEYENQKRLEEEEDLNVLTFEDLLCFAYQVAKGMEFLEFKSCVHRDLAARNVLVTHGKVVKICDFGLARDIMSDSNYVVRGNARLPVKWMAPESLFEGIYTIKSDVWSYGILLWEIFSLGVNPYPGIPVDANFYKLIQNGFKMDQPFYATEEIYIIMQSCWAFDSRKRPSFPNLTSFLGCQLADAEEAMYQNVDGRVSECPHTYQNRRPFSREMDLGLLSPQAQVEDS

PDGFR β tyrosine kinase = molecular target: T3, PDGFR β tyrosine kinase (Homo sapiens, UniProt P09619); experiment: Alphascreen protein tyrosine kinase assay, PDGFRβ; format: biochemical
T3 construct: purchased Upstate Cell Signalling Solutions, CA, USA 14-463

[2] = molecular target: T4, kinase domain of human CSF1-R (Homo sapiens, UniProt P07333); experiment: Alphascreen protein tyrosine kinase assay, CSF-1R; format: biochemical
T4 construct: from codon I553 to Q961; made in house; host or cells: Sf9 insect cells (baculovirus)
T4 sequence (P07333 553-961): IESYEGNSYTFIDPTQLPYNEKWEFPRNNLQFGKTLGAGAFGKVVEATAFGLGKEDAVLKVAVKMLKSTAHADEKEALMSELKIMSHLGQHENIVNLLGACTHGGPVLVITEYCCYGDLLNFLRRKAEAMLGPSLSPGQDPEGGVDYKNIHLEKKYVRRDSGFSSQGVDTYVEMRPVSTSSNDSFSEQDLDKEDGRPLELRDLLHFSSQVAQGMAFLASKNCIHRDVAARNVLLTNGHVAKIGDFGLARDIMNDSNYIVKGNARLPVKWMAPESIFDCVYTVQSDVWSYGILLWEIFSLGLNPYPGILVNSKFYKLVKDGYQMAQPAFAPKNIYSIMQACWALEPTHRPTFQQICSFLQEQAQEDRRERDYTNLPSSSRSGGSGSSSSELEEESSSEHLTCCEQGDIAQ
Method: as §1
The kinase domain of human CSF1-R from codon I553 to Q961 was cloned into the pDEST-20 expression vector (Invitrogen). The CSF1-R plasmid was then transformed into competent DH10Bac cells (Gibco), and the recombinant baculovirus produced prepared for transfection into Sf9 insect cells.
as §2, §3

KDR protein kinase = molecular target: T5, KDR protein kinase (Homo sapiens, UniProt P35968); experiment: Alphascreen protein tyrosine kinase assay, KDR; format: biochemical
T5 construct: purchased Millipore 14-630M
Method: as §1
FLT-3 and PDGFR β tyrosine kinase enzymes were purchased from Upstate Cell Signalling Solutions, CA, USA (flt-3 catalog #: 14-500 and PDGFR β catalog #: 14-463). KDR protein kinase enzyme was purchased from Millipore (catalogue #14-630M).
Kinase assays were performed in 384 well Optiplates (Packard) using an Alphascreen Protein Tyrosine Kinase kit. […] The biotinylated peptides Biotin-[…]-NH2 for c-KIT and PDGFRβ and Biotin-[…]-NH2 for CSF1-R and FLT-3 (final concentration 0.1-3 μM) were used as substrates. Alphascreen phosphotyrosine acceptor beads followed by streptavidin donor beads were added under subdued light. The Alphascreen plates were read on a Packard Fusion Alpha. Inhibitors were added to the assays thirty minutes prior to the addition of ATP. Inhibitors were added in aqueous DMSO, with DMSO concentrations never exceeding 1%.

mNFS-60 = experiment: Cellular assay (Alamar Blue), mNFS-60 with human M-CSF; format: cell-based; details: human M-CSF at 20 ng/ml, 72 hr
Method: (§4) Cells for the assays were prepared by harvesting cells from culture, and then diluting them in the appropriate growth medium to between 40,000 cell/mL and 600,000 cell/mL, depending on the cell line.
(§5) The compounds to be tested were added (104, 10× final concentration) to a flat bottomed 96-well plate. The cellular suspension (80 μL per well) was added, and one hour later the growth factor was added (human M-CSF at 20 ng/ml for mNFS-60, mouse IL-3 at 5 ng/ml for Baf3-WT). The plate was then incubated for 72 hr at 37° C., 5% CO2. Alamar Blue (10^4 per well) was added and the plates returned to the incubator for a further 4-8 hours.
(§6) The plates were then read using a fluorescence plate reader at excitation 544 nm and emission 590 nm.

Baf3-WT = experiment: Cellular assay (Alamar Blue), Baf3-WT with mouse IL-3; format: cell-based; details: mouse IL-3 at 5 ng/ml, 72 hr
Method: as §4, §5, §6

T1 sequence (P10721 552-976 limits assumed): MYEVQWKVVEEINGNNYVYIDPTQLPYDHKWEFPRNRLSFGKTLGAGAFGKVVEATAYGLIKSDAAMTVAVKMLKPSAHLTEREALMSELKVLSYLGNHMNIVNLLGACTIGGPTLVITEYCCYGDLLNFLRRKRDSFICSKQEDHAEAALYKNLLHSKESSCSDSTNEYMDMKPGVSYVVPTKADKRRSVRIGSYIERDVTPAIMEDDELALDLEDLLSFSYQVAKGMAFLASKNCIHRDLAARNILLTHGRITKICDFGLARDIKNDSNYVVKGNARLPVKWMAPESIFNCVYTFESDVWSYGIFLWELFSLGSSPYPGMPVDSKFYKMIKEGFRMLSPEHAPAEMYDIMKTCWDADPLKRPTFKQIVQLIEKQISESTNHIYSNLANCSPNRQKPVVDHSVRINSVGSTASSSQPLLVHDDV
T3 sequence (P09619 33-1106): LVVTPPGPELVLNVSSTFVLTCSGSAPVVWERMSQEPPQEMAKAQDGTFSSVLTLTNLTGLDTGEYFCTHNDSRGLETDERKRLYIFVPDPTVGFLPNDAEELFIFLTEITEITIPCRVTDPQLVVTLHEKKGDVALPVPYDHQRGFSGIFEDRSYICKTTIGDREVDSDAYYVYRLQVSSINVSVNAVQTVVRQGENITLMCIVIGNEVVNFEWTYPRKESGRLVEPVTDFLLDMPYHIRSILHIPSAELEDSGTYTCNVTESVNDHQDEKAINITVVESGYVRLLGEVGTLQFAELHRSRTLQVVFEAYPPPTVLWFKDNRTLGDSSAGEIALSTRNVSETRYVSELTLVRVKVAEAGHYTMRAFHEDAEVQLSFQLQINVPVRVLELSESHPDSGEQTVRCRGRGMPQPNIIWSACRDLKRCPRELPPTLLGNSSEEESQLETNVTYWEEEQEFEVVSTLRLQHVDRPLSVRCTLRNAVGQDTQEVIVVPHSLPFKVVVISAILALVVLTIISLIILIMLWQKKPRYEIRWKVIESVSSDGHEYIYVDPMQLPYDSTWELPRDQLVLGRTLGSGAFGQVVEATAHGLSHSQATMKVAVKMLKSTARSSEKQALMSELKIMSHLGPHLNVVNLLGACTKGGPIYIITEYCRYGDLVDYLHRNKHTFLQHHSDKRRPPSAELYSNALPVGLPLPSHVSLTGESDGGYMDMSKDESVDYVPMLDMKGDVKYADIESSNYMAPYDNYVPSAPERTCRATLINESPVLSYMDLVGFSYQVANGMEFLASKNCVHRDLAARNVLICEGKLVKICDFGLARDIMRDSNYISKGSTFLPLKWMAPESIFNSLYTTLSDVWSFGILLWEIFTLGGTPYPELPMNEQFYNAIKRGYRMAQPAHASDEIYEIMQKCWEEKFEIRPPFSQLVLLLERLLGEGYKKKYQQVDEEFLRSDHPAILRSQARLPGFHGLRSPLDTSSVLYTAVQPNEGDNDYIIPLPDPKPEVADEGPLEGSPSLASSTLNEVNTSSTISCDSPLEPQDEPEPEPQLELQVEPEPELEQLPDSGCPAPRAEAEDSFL
T5 sequence (P35968 20-1356): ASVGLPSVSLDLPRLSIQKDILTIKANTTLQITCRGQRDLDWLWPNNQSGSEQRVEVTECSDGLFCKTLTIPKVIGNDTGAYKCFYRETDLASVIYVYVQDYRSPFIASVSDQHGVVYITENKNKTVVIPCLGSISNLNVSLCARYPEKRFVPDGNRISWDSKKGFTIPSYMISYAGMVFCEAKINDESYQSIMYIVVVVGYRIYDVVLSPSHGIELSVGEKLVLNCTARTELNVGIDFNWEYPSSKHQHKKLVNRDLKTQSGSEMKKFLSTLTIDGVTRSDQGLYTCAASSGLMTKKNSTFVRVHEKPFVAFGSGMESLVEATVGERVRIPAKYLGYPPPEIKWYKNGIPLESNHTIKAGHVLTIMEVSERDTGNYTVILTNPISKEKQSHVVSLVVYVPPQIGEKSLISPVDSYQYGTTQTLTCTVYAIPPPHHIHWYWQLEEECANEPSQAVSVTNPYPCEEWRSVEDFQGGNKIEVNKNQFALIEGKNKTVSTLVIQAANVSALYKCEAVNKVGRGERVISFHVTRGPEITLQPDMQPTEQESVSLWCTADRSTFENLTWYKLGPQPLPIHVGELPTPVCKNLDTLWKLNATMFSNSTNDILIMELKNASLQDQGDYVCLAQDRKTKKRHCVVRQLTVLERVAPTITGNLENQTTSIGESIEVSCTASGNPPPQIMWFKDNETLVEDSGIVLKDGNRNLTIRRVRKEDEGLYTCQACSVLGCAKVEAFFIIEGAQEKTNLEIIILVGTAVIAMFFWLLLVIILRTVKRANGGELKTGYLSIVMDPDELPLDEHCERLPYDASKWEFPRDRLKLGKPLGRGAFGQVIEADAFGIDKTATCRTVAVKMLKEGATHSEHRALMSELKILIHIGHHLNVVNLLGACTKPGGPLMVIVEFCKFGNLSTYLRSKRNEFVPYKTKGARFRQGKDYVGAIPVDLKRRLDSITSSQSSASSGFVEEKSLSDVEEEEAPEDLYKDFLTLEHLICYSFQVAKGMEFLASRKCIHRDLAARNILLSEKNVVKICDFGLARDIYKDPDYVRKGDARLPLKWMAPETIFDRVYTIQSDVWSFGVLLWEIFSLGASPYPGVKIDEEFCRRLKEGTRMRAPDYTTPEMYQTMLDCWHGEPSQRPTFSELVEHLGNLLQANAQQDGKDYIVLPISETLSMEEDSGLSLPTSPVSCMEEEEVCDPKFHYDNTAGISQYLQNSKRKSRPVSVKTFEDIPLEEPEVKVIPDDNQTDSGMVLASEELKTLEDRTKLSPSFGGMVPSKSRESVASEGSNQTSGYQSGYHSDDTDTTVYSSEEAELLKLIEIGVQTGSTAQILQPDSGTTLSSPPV

| SMILES | pIC50 [1] | pIC50 (FLT-3 tyrosine kinase) | pIC50 (PDGFR β tyrosine kinase) | pIC50 [2] | pIC50 (KDR protein kinase) | pIC50 (Baf3-WT) | pIC50 (mNFS-60) |
| --- | --- | --- | --- | --- | --- | --- | --- |
| COc1cc(-c2cncc(NC(C)c3cccc(NC(=O)c4cccnc4)c3)n2)ccc1O (stereo not drawn) [Compound 1] | > 7.00 | < 5.00 | > 6.00 | – | – | – | – |
| COc1cc(-c2cncc(N[C@@H](C)c3cccc(NC(=O)c4cccnc4)c3)n2)ccc1N [Compound 7] | > 7.00 | > 5.00 | > 7.00 | > 7.00 | – | – | – |
| COc1cccc(-c2cncc(N[C@@H](C)c3cccc(NC(=O)c4cncc(C)c4)c3)n2)c1 [Compound 24] | > 7.00 | > 5.00 | > 7.00 | > 7.00 | > 7.00 | < 5.00 | > 6.70 |
| COc1cc(-c2cncc(N[C@@H](C)c3cccc(NC(=O)c4cncc(C)c4)c3)n2)ccc1O [Compound 28] | > 7.00 | > 5.00 | > 7.00 | > 7.00 | – | – | – |
| COc1cc(-c2cncc(N[C@@H](C)c3cccc(NC(=O)c4cncc(C)c4)c3)n2)ccc1N [Compound 29] | > 7.00 | > 5.00 | > 7.00 | > 7.00 | – | – | – |
| COc1cc(-c2cncc(N[C@@H](C)c3cccc(NC(=O)c4ccc(C)nc4)c3)n2)ccc1N [Compound 38] | > 7.00 | > 5.00 | – | > 7.00 | – | – | – |
| Cc1cncc(C(=O)Nc2cccc([C@H](C)Nc3cncc(Cl)n3)c2)c1 [Compound 42, N-(3-{(1S)-1-[(6-chloropyrazin-2-yl)amino]ethyl}phenyl)-5-methylnicotinamide] | > 7.00 | < 5.00 | > 6.00 | – | – | – | – |
| COc1cc(-c2cncc(N[C@@H](C)c3cccc(NC(=O)c4cccc(C)c4)c3)n2)ccc1O [Compound 76] | > 7.00 | > 5.00 | > 6.00 | > 7.00 | – | – | – |

More lines, main results first:

| pIC50 [1] | pIC50 (FLT-3 tyrosine kinase) | pIC50 (PDGFR β tyrosine kinase) | pIC50 [2] | pIC50 (KDR protein kinase) | pIC50 (Baf3-WT) | SMILES | pIC50 (mNFS-60) |
| --- | --- | --- | --- | --- | --- | --- | --- |
| > 7.00 | < 5.00 | > 6.00 | > 7.00 | – | – | Cc1cncc(C(=O)Nc2cccc([C@H](C)Nc3cncc(-c4ccc(N5CCOCC5)nc4)n3)c2)c1 [Compound 79] | – |
| > 7.00 | < 5.00 | > 6.00 | > 7.00 | – | – | Cc1cncc(C(=O)Nc2cccc([C@H](C)Nc3cncc(-c4ccc(NCCN5CCOCC5)nc4)n3)c2)c1 [Compound 80] | – |
| > 7.00 | < 5.00 | > 6.00 | > 7.00 | – | – | Cc1cccc(C(=O)Nc2cccc([C@H](C)Nc3cncc(-c4ccc(N5CCOCC5)cc4)n3)c2)c1 [Compound 81] | – |
| > 6.00 | < 5.00 | > 6.00 | > 7.00 | – | – | Cc1ccnc(C(=O)Nc2cccc([C@H](C)Nc3cncc(Cl)n3)c2)c1 [Compound 82] | – |
| > 6.00 | > 6.00 | > 6.00 | – | – | – | Cc1cc(C(=O)Nc2cccc([C@H](C)Nc3cncc(Cl)n3)c2)ccn1 [Compound 83] | – |
| > 6.00 | > 5.00 | > 6.00 | > 7.00 | – | – | Cc1cccc(C(=O)Nc2cccc([C@H](C)Nc3cncc(-c4ccc(O)nc4)n3)c2)c1 [Compound 90] | – |
| > 6.00 | < 5.00 | > 6.00 | > 7.00 | – | – | C[C@H](Nc1cncc(Cl)n1)c1cccc(NC(=O)c2ccc(CN3CCN(C)CC3)cc2)c1 [Compound 91] | – |
| > 6.00 | < 5.00 | > 6.00 | – | – | – | Cc1ccc(C(=O)Nc2cccc([C@H](C)Nc3cncc(Cl)n3)c2)cc1 [Compound 93] | – |
| > 6.00 | < 5.00 | > 6.00 | > 7.00 | – | – | Cc1cccc(C(=O)Nc2cccc([C@H](C)Nc3cncc(N4CCC(O)CC4)n3)c2)c1 [Compound 95] | – |
